Data on two compounds can be found in patent US6835755B1, “Naphthoquinone derivatives and their use in the treatment and control of tuberculosis” (priority 1999, dated 2004).

The test system of this test is resistant strains of Mycobacterium tuberculosis. Briefly: microbe, parasite or virus in culture. The test is classed as cell-based. The note with it: for ΔGI values of plant extracts: at MIC, mean ± s.d.

In brackets after ≈: the same amount, converted by molar mass.

For the compound `Cc1cc(O)c2c(c1)C(=O)C=CC2=O` [7-methyljuglone, 5-hydroxy-7-methyl-1,4-naphtoquinone], the “ΔGI values of plant extracts” value (Two drug (isoniazid and rifampicin) resistant strain CCKO28469V) worked out at 0 ± 0. Moreover, the “MIC (Minimal inhibitory concentration)” value (Two drug (isoniazid and rifampicin) resistant strain CCKO28469V, radiometric method) came to 50 µg/mL (≈ 266 µM).

As for `Cc1cc(O)c2c(c1)C(=O)C(c1c(C)cc3c(c1O)C(=O)C=CC3=O)=CC2=O` [diospyrin, 5,5′ dihydroxy 7,7′ binaphthoquinone], the “ΔGI values of plant extracts” value is, setting by setting: (2 drug resistant strain (res. to isoniazid and rifampicin)) 3.5 mg/mL; (3 drug resistant strain (res. to streptomycin, isoniazid and ethambutol)) 4 ± 2.12 mg/mL; (4 drug resistant strain (res. to streptomycin, isoniazid, rifampicin and ethambutol)) 5 ± 2.82 mg/mL; (5 drug resistant strain (res to isoniazid, streptomycin, rifampicin, thiacetazone and cyclocerine)) 10 ± 1.41 mg/mL; (6 drug resistant strain (res. to isoniazid, rifampicin, ethionamide, terizidone, thiacetazone and ofloxacin)) 9 ± 2.82 mg/mL; (7 drug resistant strain (res to isoniazid, streptomycin, ethambutol, kanamycin, rifampicin, and ethionamide)) 13.5 ± 3.2 mg/mL. For the same compound, the MIC was found to be 100 µg/mL (≈ 267 µM) (3 drug resistant strain (res. to streptomycin, isoniazid and ethambutol), radiometric method); 100 µg/mL (≈ 267 µM) (4 drug resistant strain (res. to streptomycin, isoniazid, rifampicin and ethambutol), radiometric method); 100 µg/mL (≈ 267 µM) (5 drug resistant strain (res to isoniazid, streptomycin, rifampicin, thiacetazone and cyclocerine), radiometric method); 100 µg/mL (≈ 267 µM) (6 drug resistant strain (res. to isoniazid, rifampicin, ethionamide, terizidone, thiacetazone and ofloxacin), radiometric method); 100 µg/mL (≈ 267 µM) (7 drug resistant strain (res to isoniazid, streptomycin, ethambutol, kanamycin, rifampicin, and ethionamide), radiometric method); 100 µg/mL (≈ 267 µM) (Mycobacterium tuberculosis).
